{
  "source": "patent US20240409482A1",
  "about": "“Novel Compound and Organic Light Emitting Device Comprising the Same” (LG Chem, Ltd., priority 2022, published 2024)",
  "data": [
    {"test": "Solubility measurement in cyclohexanone", "type": "physicochemical", "design": "key to Solubility (1.3 wt %): “O” means that the compound was easily dissolved in cyclohexanone; “A” means that the compound was dissolved in cyclohexanone at 80° C.; “X” means that the compound is not soluble in cyclohexanone", "details": "cyclohexanone, concentration of 1.3 wt %, room temperature", "procedure": "(§1) It was confirmed whether each of Compounds 1 to 14, Compound A and Compound B prepared in Preparation Examples could be dissolved in cyclohexanone at a concentration of 1.3 wt % at 25° C., and the results are shown in Table 1 below. At this time, “O” means that the compound was easily dissolved in cyclohexanone, “A” means that the compound was dissolved in cyclohexanone at 80° C., and “X” means that the compound is not soluble in cyclohexanone.", "values": [
      {"smiles": "c1ccc(-c2c3ccccc3c(-c3ccc(-c4ccc5cc(-c6ccc7cc(-c8c9ccccc9c(-c9ccccc9)c9ccccc89)ccc7c6)ccc5c4)cc3)c3ccccc23)cc1", "note": "[Compound A]", "Solubility in cyclohexanone, result in words": "could not be dissolved at room temperature"},
      {"smiles": "c1ccc2c(-c3ccc(-c4c5ccccc5c(-c5ccc(-c6cccc7c(-c8cccc9ccc(-c%10ccc(-c%11c%12ccccc%12c(-c%12cccc%13ccccc%12%13)c%12ccccc%11%12)cc%10)cc89)cccc67)cc5)c5ccccc45)cc3)cccc2c1", "note": "[Compound B, reference compound]", "Solubility in cyclohexanone, result in words": "could not be dissolved at room temperature"}
    ]},
    {"test": "Solubility measurement in cyclohexanone", "type": "physicochemical", "design": "key to Solubility (1.3 wt %): “O” means that the compound was easily dissolved in cyclohexanone; “A” means that the compound was dissolved in cyclohexanone at 80° C.; “X” means that the compound is not soluble in cyclohexanone", "details": "in cyclohexanone at a concentration of 1.3 wt % at 25° C.", "procedure": "as §1", "values": [
      {"smiles": "c1ccc2cc(-c3c4ccccc4c(-c4ccc(-c5cccc6ccc(-c7ccc8cccc(-c9c%10ccccc%10c(-c%10ccc%11ccccc%11c%10)c%10ccccc9%10)c8c7)cc56)cc4)c4ccccc34)ccc2c1", "note": "[Compound 1]", "Solubility (1.3 wt %)": "◯"},
      {"smiles": "c1ccc2cc(-c3ccc(-c4c5ccccc5c(-c5cccc6ccc(-c7ccc8cccc(-c9c%10ccccc%10c(-c%10ccc%11ccccc%11c%10)c%10ccccc9%10)c8c7)cc56)c5ccccc45)cc3)ccc2c1", "note": "[Compound 2]", "Solubility (1.3 wt %)": "◯"},
      {"smiles": "c1ccc2cc(-c3c4ccccc4c(-c4cccc5ccc(-c6ccc7cccc(-c8c9ccccc9c(-c9ccc(-c%10cccc%11ccccc%10%11)cc9)c9ccccc89)c7c6)cc45)c4ccccc34)ccc2c1", "note": "[Compound 3]", "Solubility (1.3 wt %)": "◯"},
      {"smiles": "c1cc(-c2cccc3ccc(-c4ccc5cccc(-c6c7ccccc7c(-c7ccc8ccccc8c7)c7ccccc67)c5c4)cc23)cc(-c2c3ccccc3c(-c3cccc4ccccc34)c3ccccc23)c1", "note": "[Compound 4]", "Solubility (1.3 wt %)": "◯"},
      {"smiles": "c1cc(-c2cccc3ccc(-c4ccc5cccc(-c6c7ccccc7c(-c7ccc8ccccc8c7)c7ccccc67)c5c4)cc23)cc(-c2c3ccccc3c(-c3ccc4ccccc4c3)c3ccccc23)c1", "note": "[Compound 5]", "Solubility (1.3 wt %)": "◯"},
      {"smiles": "c1cc(-c2ccc(-c3c4ccccc4c(-c4cccc5ccccc45)c4ccccc34)cc2)c2cc(-c3ccc4cccc(-c5c6ccccc6c(-c6cccc7oc8ccccc8c67)c6ccccc56)c4c3)ccc2c1", "note": "[Compound 6]", "Solubility (1.3 wt %)": "◯"},
      {"smiles": "c1cc(-c2cccc3ccc(-c4ccc5cccc(-c6c7ccccc7c(-c7ccc8oc9ccccc9c8c7)c7ccccc67)c5c4)cc23)cc(-c2c3ccccc3c(-c3ccc4ccccc4c3)c3ccccc23)c1", "note": "[Compound 7]", "Solubility (1.3 wt %)": "◯"},
      {"smiles": "c1cc(-c2ccc(-c3c4ccccc4c(-c4cccc5ccccc45)c4ccccc34)cc2)c2cc(-c3ccc4cccc(-c5c6ccccc6c(-c6ccc7oc8ccccc8c7c6)c6ccccc56)c4c3)ccc2c1", "note": "[Compound 8]", "Solubility (1.3 wt %)": "◯"},
      {"smiles": "c1ccc2c(-c3c4ccccc4c(-c4ccc(-c5ccc6ccc(-c7ccc8ccc(-c9c%10ccccc%10c(-c%10ccc%11oc%12ccccc%12c%11c%10)c%10ccccc9%10)cc8c7)cc6c5)cc4)c4ccccc34)cccc2c1", "note": "[Compound 9]", "Solubility (1.3 wt %)": "◯"},
      {"smiles": "c1ccc2cc(-c3c4ccccc4c(-c4ccc5ccc(-c6ccc7ccc(-c8c9ccccc9c(-c9ccc(-c%10cccc%11ccccc%10%11)cc9)c9ccccc89)cc7c6)cc5c4)c4ccccc34)ccc2c1", "note": "[Compound 10]", "Solubility (1.3 wt %)": "◯"},
      {"smiles": "c1ccc2cc(-c3c4ccccc4c(-c4ccc(-c5cccc6cc(-c7ccc8c(-c9c%10ccccc%10c(-c%10ccc%11ccccc%11c%10)c%10ccccc9%10)cccc8c7)ccc56)cc4)c4ccccc34)ccc2c1", "note": "[Compound 11]", "Solubility (1.3 wt %)": "◯"},
      {"smiles": "c1cc(-c2ccc(-c3c4ccccc4c(-c4cccc5ccccc45)c4ccccc34)cc2)c2ccc(-c3ccc4c(-c5c6ccccc6c(-c6ccc7oc8ccccc8c7c6)c6ccccc56)cccc4c3)cc2c1", "note": "[Compound 12]", "Solubility (1.3 wt %)": "◯"},
      {"smiles": "c1ccc(-c2c3ccccc3c(-c3ccc(-c4ccc5cc(-c6ccc7cc(-c8c9ccccc9c(-c9ccccc9)c9ccccc89)ccc7c6)ccc5c4)cc3)c3ccccc23)cc1", "note": "[Compound A]", "Solubility (1.3 wt %)": "X"},
      {"smiles": "c1ccc2c(-c3ccc(-c4c5ccccc5c(-c5ccc(-c6cccc7c(-c8cccc9ccc(-c%10ccc(-c%11c%12ccccc%12c(-c%12cccc%13ccccc%12%13)c%12ccccc%11%12)cc%10)cc89)cccc67)cc5)c5ccccc45)cc3)cccc2c1", "note": "[Compound B, reference compound]", "Solubility (1.3 wt %)": "Δ"}
    ]}
  ]
}
